Data taken from patent US12643894B2, “BCL-2 family proteins modulating compounds for cancer treatment” (CENTRE REGIONAL DE LUTTE CONTRE LE CANCER FRANCOIS BACLESSE, priority 2020, dated 2026).

What was measured:
Mcl-1 = biological target: T1, Mcl-1 (Homo sapiens, UniProt Q07820); test: Target expression analysis by western blot (Mcl-1) in IGROV1-R10 cells; type: cell-based; conditions: 24 h exposure, 1 μM
T1 construct: endogenous in cells; host or cells: IGROV1-R10 (human platinum-resistant ovarian carcinoma)
T1 sequence (Q07820 whole entry): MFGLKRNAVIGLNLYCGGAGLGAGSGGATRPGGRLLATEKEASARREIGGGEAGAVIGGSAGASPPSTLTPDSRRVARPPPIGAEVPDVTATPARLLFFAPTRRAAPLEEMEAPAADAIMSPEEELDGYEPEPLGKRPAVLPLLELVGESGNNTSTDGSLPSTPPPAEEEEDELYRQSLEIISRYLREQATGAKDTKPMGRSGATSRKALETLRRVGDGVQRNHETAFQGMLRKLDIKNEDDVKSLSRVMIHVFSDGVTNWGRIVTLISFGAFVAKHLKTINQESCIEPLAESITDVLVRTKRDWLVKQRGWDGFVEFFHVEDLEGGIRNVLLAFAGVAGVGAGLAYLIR
Description: (§1) Human platinum resistant ovarian carcinoma cells IGROV1-R10 were used. This cell line was grown in RPMI 1640 medium supplemented with 2 mM Glutamax™, 25 mM HEPES, 10% fetal calf serum, and 33 mM sodium bicarbonate (Fisher Scientific, Illkirch, France). Cells were maintained at 37° C. in a humid atmosphere with 5% C02. Cells were seeded in 25 cm^2 flasks. After 24 h, exponentially growing cells were exposed to 1 μM of compounds for 24 h. CRBN-PBM1-001 targeting both Mcl-1 and CRBN and Pyridoclax were designed and synthetized by the CERMN (Centre d'Etudes et de Recherche sur le Médicament de Normandie) and dissolved in DiMethyl SulfOxide (DMSO, Sigma-Aldrich).
(§2) Cells were rinsed with ice-cold PBS, suspended in a lysis buffer [RIPA: NaCl 150 mM, Tris (pH 8) 50 mM, Triton X100 1%, PMSF 4 mM, EDTA 5 mM, NaF 10 mM, NaPPi 10 mM, Na3VO4 1 mM, aprotinin 0.5 μL/mL and 4.6 mL ultra-pure water] and incubated on ice for 30 min. Lysates were collected after centrifugation (13200 g, 10 min, 4° C.) and protein concentrations were determined using the Bradford assay (Bio-Rad, Hercules, USA). Equal amounts of protein (25 μg) were separated by SDS-PAGE on a 4-15% gradient polyacrylamide Mini-PROTEAN®TGX™ precast gel (Bio-Rad). […] The relative intensities of the protein bands were quantified using the ImageJ software, and the values were normalized to the intensities of the respective Actin signals. […]

Bcl-xL = biological target: T2, Bcl-xL (Homo sapiens, UniProt Q07817); test: Target expression analysis by western blot (Bcl-xL) in IGROV1-R10 cells; type: cell-based; conditions: 24 h exposure, 1 μM
T2 construct: endogenous in cells; host or cells: IGROV1-R10 (human platinum-resistant ovarian carcinoma)
T2 sequence (Q07817 whole entry): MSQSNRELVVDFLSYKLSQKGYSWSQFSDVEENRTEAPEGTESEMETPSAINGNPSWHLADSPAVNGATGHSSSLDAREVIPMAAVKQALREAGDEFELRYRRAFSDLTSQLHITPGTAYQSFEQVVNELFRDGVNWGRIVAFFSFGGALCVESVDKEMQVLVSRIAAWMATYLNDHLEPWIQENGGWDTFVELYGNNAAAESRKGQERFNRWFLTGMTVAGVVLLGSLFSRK
Description: as §1, §2

Compound | decrease of Mcl-1 expression (Mcl-1; densitometry analysis of western blot normalized to Actin) [%] | Bcl-xL expression (Bcl-xL) | Mcl-1 expression (modulation) (Mcl-1; single agent, western blot)
Cc1cc(-c2ncc(C#CCOCCOCCNc3cccc4c3C(=O)N(C3CCC(=O)NC3=O)C4=O)cc2/C=C/c2ccccc2)cnc1-c1cccnc1 (stereo not drawn) [CRBN-PBM1-001] | 52 | not affected | –
Cc1cc(-c2ncc(-c3cccnc3)cc2/C=C/c2ccccc2)cnc1-c1cccnc1 [Pyridoclax, reference compound] | – | – | did not modulate
